One data set deals with Sphaerotheca fuliginea. Kind of data set: In vivo preventive test on Sphaerotheca fuliginea (cucumber). The settings on record: 500 ppm of active ingredient, evaluated 7 days after inoculation.
For another data set, the system named is Alternaria solani. Kind of data set: In vivo preventive test on Alternaria solani (tomato). The following applies: evaluated 7 days after inoculation. As to the method:
The plants remain for one day in an incubation cabinet at approximately 22° C. and a relative atmospheric humidity of 100%. Then the plants are placed in an incubation cabinet at approximately 20° C. and a relative atmospheric humidity of 96%.

The nature of data set [1]: logP by HPLC on reversed-phase column (EEC Directive 79/831 Annex V.A8). Format: physicochemical. The settings on record: HPLC on reversed-phase column (C 18), 40° C., 0.1% aqueous formic acid and acetonitrile, linear gradient 10% to 90% acetonitrile. As to the method: In table 1, the logP values were determined in accordance with EEC Directive 79/831 Annex V.A8 by HPLC (High Performance Liquid Chromatography) on a reversed-phase column (C 18), using the method described below: Temperature: 40° C.; Mobile phases: 0.1% aqueous formic acid and acetonitrile; linear gradient from 10% acetonitrile to 90% acetonitrile. Calibration was carried out using unbranched alkan-2-ones (comprising 3 to 16 carbon atoms) with known logP values (determination of the logP values by the retention times using linear interpolation between two successive alkanones). lambda-max-values were determined using UV-spectra from 200 nm to 400 nm and the peak values of the chromatographic signals.

The subject of the next data set is Pyrenophora teres. Kind of data set: In vivo preventive test on Pyrenophora teres (barley). The following applies: 500 ppm of active ingredient, evaluated 7-9 days after inoculation. How it is done: The plants remain for 48 hours in an incubation cabinet at 22° C. and a relative atmospheric humidity of 100%.
Another data set deals with Leptosphaeria nodorum. Kind of data set: In vivo preventive test on Leptosphaeria nodorum (wheat). The following applies: evaluated 8 days after inoculation. The source says: After the spray coating has been dried, the plants are sprayed with a spore suspension of Leptosphaeria nodorum.
The subject of the next data set is Septoria tritici. Kind of data set: In vivo preventive test on Septoria tritici (wheat). The settings on record: 500 ppm of active ingredient, evaluated 21 days after inoculation. The text has this:
After the spray coating has been dried, the plants are sprayed with a spore suspension of Septoria tritici.

Data set [2] deals with Blumeria graminis f.sp. hordei. Kind of data set: In vivo preventive test on Blumeria graminis (barley). The settings on record: 500 ppm of active ingredient, evaluated 7 days after inoculation. The source says:
After the spray coating has been dried, the plants are dusted with spores of Blumeria graminis f.sp. hordei.

The test system of data set [3] is Fusarium nivale (var. majus). Kind of data set: In vivo preventive test on Fusarium nivale (wheat). The following applies: 500 ppm of active ingredient, evaluated 5 days after inoculation. The text has this:
After the spray coating has been dried, the plants are slightly injured by using a sandblast and afterwards they are sprayed with a conidia suspension of Fusarium nivale (var. majus).

For another data set, the system named is Venturia inaequalis. The experiment in a line: In vivo preventive test on Venturia inaequalis (apple scab). The settings on record: 100 ppm of active ingredient, evaluated 10 days after inoculation. How it is done:
After the spray coating has dried on, the plants are inoculated with an aqueous conidia suspension of the causal agent of apple scab (Venturia inaequalis) and then remain for 1 day in an incubation cabinet at approximately 20° C. and a relative atmospheric humidity of 100%.

In the next data set the test system is Puccinia triticina. The experiment in a line: In vivo preventive test on Puccinia triticina (wheat). The following applies: 500 ppm of active ingredient, evaluated 8 days after inoculation. As to the method: In Vivo Preventive Test on Puccinia Triticina (Wheat)
Solvent: 49 parts by weight of N,N-dimethylacetamide
Emulsifier: 1 part by weight of alkylaryl polyglycol ether
After the spray coating has been dried, the plants are sprayed with a spore suspension of Puccinia triticina.
The test is evaluated 8 days after the inoculation.

The mark [4] stands for this setting: 100 ppm of active ingredient, listed as 1.110.
The mark [5] stands for this setting: 100 ppm of active ingredient, listed as 1.110 from WO-2009/153191.

This passage reports Efficacy and logP results from US8614242B2, “1-(heterocyclic carbonyl)-2-substituted pyrrolidines” (Bayer Intellectual Property GmbH, priority 2010, dated 2013).

Structures are written as SMILES.

In the case of `Cn1nc(C(F)F)c(C(=S)N2CCCC2Cc2ccccc2Cl)c1F` (racemic) [Example 61], the Efficacy in the data set with Sphaerotheca fuliginea came to 95%; with Alternaria solani (500 ppm of active ingredient) it was 100%; with Pyrenophora teres it was 100%. Also, the logP (usually the decadic logarithm of the partition coefficient of the neutral form, usually between octanol and water) in data set [1] was 3.83.

For the molecule `Cn1nc(C(F)F)c(C(=O)N2CCCC2Cc2cccc(Cl)c2Cl)c1F` (racemic) [Example 69], the Efficacy in the data set on Sphaerotheca fuliginea is recorded as 88%; in the data set on Alternaria solani (500 ppm of active ingredient), 100%; in the data set with Pyrenophora teres, 100%. Also, the logP in data set [1] worked out at 3.64.

Turning to `Cn1nc(C(F)F)c(C(=O)N2CCCC2Cc2ccc(Br)cc2)c1F` (racemic) [Example 80], the Efficacy with Sphaerotheca fuliginea was found to be 89%; with Alternaria solani (500 ppm of active ingredient) it was 100%; in the data set with Pyrenophora teres, 100%. In addition, the logP in [1] is 3.39.

With `Cn1cc(C(=O)N2CCCC2Cc2c(Cl)cccc2Cl)c(C(F)F)n1` (stereo not drawn) [Example 1.110 from WO-2009/153191, [2-(2,6-dichlorobenzyl)pyrrolidin-1-yl][3-(difluoromethyl)-1-methyl-1H-pyrazol-4-yl]methanone, reference compound], the Efficacy entry is reported as “less than 30%” with Alternaria solani (setting [4]); 30% in the data set with Alternaria solani (setting [5]); 95% with Alternaria solani (500 ppm of active ingredient); “no protection” with Leptosphaeria nodorum (setting [4]); 0% in the data set with Leptosphaeria nodorum (setting [5]); 44% with Leptosphaeria nodorum (500 ppm of active ingredient).

Consider `Cn1nc(C(F)F)c(C(=O)N2CCCC2c2ccccc2Cl)c1F` (stereo not drawn) [Example 6], for which the Efficacy in the data set with Sphaerotheca fuliginea came to 90%; with Alternaria solani (500 ppm of active ingredient), 100%; with Pyrenophora teres, 100%. Further, in data set [1], the logP was 2.90.

For the molecule `Cn1nc(C(F)F)c(C(=O)N2CCCC2Cc2c(Cl)cccc2Cl)c1F` (racemic) [Example 76], the Efficacy with Sphaerotheca fuliginea was found to be 95%; in the data set with Septoria tritici, 83%; in data set [2], 100%; in data set [3], 100%; in the data set with Pyrenophora teres, 100%. In data set [1], this molecule showed a logP of 3.31.

Take `Cn1cc(C(=O)N2CCC[C@H]2COc2c(Cl)cc(Cl)cc2Cl)c(C(F)F)n1` [Example 1.006 from WO-2009/153191, [3-(difluoromethyl)-1-methyl-1H-pyrazol-4-yl]{(S)-2-[(2,4,6-trichlorophenoxy)methyl]pyrrolidin-1-yl}methanone, reference compound]: the Efficacy result is given as “less than 50%” in the data set with Leptosphaeria nodorum (250 ppm of active ingredient, listed as 1.006); 43% with Leptosphaeria nodorum (250 ppm of active ingredient, listed as 1.006 from WO-2009/153191); “at least 70%” in the data set with Leptosphaeria nodorum (500 ppm of active ingredient, listed as 1.006); 71% with Leptosphaeria nodorum (500 ppm of active ingredient, listed as 1.006 from WO-2009/153191).

Take `Cn1nc(C(F)F)c(C(=O)N2CCCC2Cc2ccccc2Cl)c1F` (stereo not drawn) [Example 60]: the Efficacy with Sphaerotheca fuliginea is 95%; in the data set with Alternaria solani (500 ppm of active ingredient), 100%; in data set [2], 100%; in data set [3], 100%; with Pyrenophora teres it was 100%; with Leptosphaeria nodorum (500 ppm of active ingredient) it was 100%. The Efficacy with Venturia inaequalis and in the data set with Puccinia triticina was 100% throughout. This molecule also displayed a logP in data set [1] of 3.06.

For `Cc1ccccc1C1CCCN1C(=O)c1c(C(F)F)nn(C)c1F` (stereo not drawn) [Example 2], the Efficacy in the data set with Sphaerotheca fuliginea is reported as 95%; with Alternaria solani (500 ppm of active ingredient) it was 90%; in the data set with Pyrenophora teres, 100%. The logP in [1] is reported as 2.75.

For `Cn1nc(C(F)F)c(C(=S)N2CCCC2c2ccc(Cl)cc2Cl)c1F` (stereo not drawn) [Example 24], the values for the Efficacy in the data set with Sphaerotheca fuliginea, in the data set with Alternaria solani (500 ppm of active ingredient) and with Pyrenophora teres were 95%, 90% and 100%, respectively. In addition, in data set [1], the logP is 4.09.

As to `Cn1nc(C(F)F)c(C(=O)N2CCCC2c2ccc(C(F)(F)F)cc2)c1F` (stereo not drawn) [Example 21], the Efficacy in the data set with Sphaerotheca fuliginea is 81%; in the data set with Alternaria solani (500 ppm of active ingredient), 90%; with Pyrenophora teres, 95%. Further, in data set [1], the logP was found to be 3.13.

As for `Cn1nc(C(F)F)c(C(=O)N2CCCC2c2ccc(Cl)cc2Cl)c1F` (stereo not drawn) [Example 22], the results for the Efficacy in the data set with Sphaerotheca fuliginea, with Alternaria solani (500 ppm of active ingredient) and in the data set on Pyrenophora teres were 91%, 100% and 95%, respectively. Moreover, the logP in data set [1] came out at 3.44.

With `Cn1nc(C(F)F)c(C(=O)N2CCCC2c2cc(F)cc(F)c2)c1F` (stereo not drawn) [Example 10], the Efficacy in the data set with Sphaerotheca fuliginea was found to be 85%; with Alternaria solani (500 ppm of active ingredient), 95%; with Pyrenophora teres, 100%. The molecule also registered a logP in data set [1] of 2.70.

Regarding `Cn1nc(C(F)F)c(C(=O)N2CCCC2Cc2ccc(F)cc2)c1F` (stereo not drawn) [Example 59], the Efficacy in the data set on Sphaerotheca fuliginea is 93%; in the data set with Septoria tritici, 90%; in data set [2] it was 100%; in data set [3] it was 100%; in the data set with Pyrenophora teres it was 100%; in the data set with Leptosphaeria nodorum (500 ppm of active ingredient), 93%. The molecule also registered an Efficacy with Puccinia triticina of 88%. This molecule also had a logP in [1] of 2.90.

With `Cn1nc(C(F)F)c(C(=O)N2CCCC2c2ccc(C(C)(C)C)cc2)c1F` (stereo not drawn) [Example 13], the Efficacy is listed as 93% with Sphaerotheca fuliginea, 100% with Alternaria solani (500 ppm of active ingredient) and 100% in the data set with Pyrenophora teres. The logP in data set [1] was found to be 3.74.

For the molecule `Cn1nc(C(F)F)c(C(=O)N2CCCC2c2cc(Cl)cc(Cl)c2)c1F` (stereo not drawn) [Example 28], the Efficacy with Sphaerotheca fuliginea came out at 100%; with Alternaria solani (500 ppm of active ingredient) it was 95%; with Pyrenophora teres, 100%. This molecule came in with a logP in data set [1] of 3.35.

Regarding `Cn1nc(C(F)F)c(C(=S)N2CCCC2Cc2c(Cl)cccc2Cl)c1F` (racemic) [Example 77], the Efficacy was 95% with Sphaerotheca fuliginea, 100% in the data set on Alternaria solani (500 ppm of active ingredient) and 100% in the data set with Pyrenophora teres. This molecule registered a logP in [1] of 4.06.

As for `Cn1nc(C(F)F)c(C(=O)N2CCCC2Cc2ccc(Cl)cc2)c1F` (racemic) [Example 65], the Efficacy with Sphaerotheca fuliginea is 95%; in the data set with Alternaria solani (500 ppm of active ingredient) it was 94%; with Septoria tritici it was 100%; in [2], 100%; in data set [3], 100%; with Pyrenophora teres, 100%. Moreover, the Efficacy in the data set on Leptosphaeria nodorum (500 ppm of active ingredient) and in the data set on Venturia inaequalis was 100% each time. Besides, the logP in data set [1] is 3.29.

`Cn1nc(C(F)F)c(C(=O)N2CCCC2c2cccc(Br)c2)c1F` (stereo not drawn) [Example 34]: the Efficacy came to 95% with Sphaerotheca fuliginea, 95% in the data set on Alternaria solani (500 ppm of active ingredient) and 100% in the data set with Pyrenophora teres. Also, in data set [1], the logP turned out to be 2.92.

With `Cn1nc(C(F)F)c(C(=S)N2CCCC2c2cccc(C(F)(F)F)c2)c1F` (stereo not drawn) [Example 18], the Efficacy is 100% in the data set on Sphaerotheca fuliginea, 90% with Alternaria solani (500 ppm of active ingredient) and 100% in the data set with Pyrenophora teres. In addition, in data set [1], the logP stood at 3.59.

Take `Cn1nc(C(F)F)c(C(=O)N2CCCC2c2cc(C(F)(F)F)cc(C(F)(F)F)c2)c1F` (stereo not drawn) [Example 39]: the figures for the Efficacy with Sphaerotheca fuliginea, with Alternaria solani (500 ppm of active ingredient) and with Pyrenophora teres were 100%, 95% and 100%, respectively. In [1], this molecule registered a logP of 3.63.

As to `Cn1nc(C(F)F)c(C(=O)N2CCCC2c2cc(Cl)cc(Cl)c2)c1Cl` (stereo not drawn) [Example 27], the Efficacy was 70% in the data set with Sphaerotheca fuliginea, 95% with Alternaria solani (500 ppm of active ingredient) and 95% in the data set with Pyrenophora teres. In data set [1], this molecule returned a log partition coefficient (logP) of 3.50.

Turning to `Cn1nc(C(F)F)c(C(=O)N2CCCC2c2ccc(Cl)c(Cl)c2)c1F` (stereo not drawn) [Example 26], the Efficacy in the data set on Sphaerotheca fuliginea came out at 95%; in the data set with Alternaria solani (500 ppm of active ingredient) it was 95%; with Pyrenophora teres, 100%. Moreover, the logP in data set [1] is recorded as 3.23.

With `Cn1nc(C(F)F)c(C(=O)N2CCCC2c2cccc(C(F)(F)F)c2)c1Cl` (stereo not drawn) [Example 16], the figures for the Efficacy with Sphaerotheca fuliginea, with Alternaria solani (500 ppm of active ingredient) and with Pyrenophora teres were 86%, 100% and 100%, respectively. This molecule returned a logP in data set [1] of 3.21.
